{"source": "paper PMC5225203", "about": "“Multiparameter toxicity assessment of novel DOPO-derived organophosphorus flame retardants” (Archives of Toxicology, 2016)", "key": {"[1]": {"system": "differentiated LUHMES cells", "type": "cell-based, human", "conditions": "positive control", "protocol": "Suppl. Fig. 10. Migration of mitochondria in neurites. Mitochondrial migration was detected in fully differentiated (day 6 of differentiation, DoD6) mixed LUHMES cultures consisting of 3% eGFP/mito-tRFP-overexpressing LUHMES in 97% unlabeled LUHMES in order to allow tracking of mitochondria in single neurites in an environment of normal LUHMES cell density (Schildknecht et al. 2013, ALTEX 30(4):427-444). Single cell time lapse imaging was performed for a period of 90 s in intervals of 3 s with a Zeiss LSM 780 inverted fluorescence microscope YOKOGAWA CSU-XI spinning disk system using an EVOLVE camera (Carl Zeiss Group, Oberkochen, Germany) equipped with a 5% CO2 /37°C controlled chamber and a 40 x 1.3 NA oil objective. For image analysis, kymographs (graphical representation of spatial position over time) based on the data obtained from single cell time lapse experiments were created using ImageJ Software (NIH, Bethesda, USA). The neurite was manually defined by the segmented line tool. To calculate mitochondrial velocity, diagonal lines were drawn for each moving mitochondrium in the kymograph and analysed by calculating the slope with the macro-plugin Kymo Line ROI, generated by Felix Schöneberger, Bioimaging Center (BIC), University of Konstanz, Germany.\n(1 picture or pasted object on this page, not shown here)"}, "[2]": {"system": "3D epidermal in vitro model generated from primary human keratinocytes", "assay": "3D epidermal in vitro model", "type": "cell-based", "conditions": "positive control, 5 %, 15 min", "protocol": "Human primary keratinocytes (PR3D-HPEK-50, CELLnTEC, Switzerland) were grown in flasks in proliferation medium (CNT-PR, CELLnTEC) until subconfluency was reached, after which the cells were seeded into transwell inserts containing polycarbonate membranes with a pore size of 0.4 µm at a density of 3.3 × 10^5 cells/cm^2 and grown for 3 days in CNT-PR until confluency was reached. Differentiation was initiated by the addition of 3D barrier medium (CNT-PR-3D, CELLnTEC) for 18 h to allow development of cell-to-cell adhesion structures. 3D growth and differentiation were induced by complete removal of medium from the upper transwell compartment and replacement of the CNT-PR-3D differentiation medium in the lower compartment. Cells were allowed to differentiate for 11 days with 3 medium changes per week in the lower compartment and direct cell-to-air contact in the top compartment. Flame retardants were suspended at a concentration of 200 mM in PBS containing 5 % DMSO, after which 100 µL of each test compound was applied on top of the epithelial barrier model. […] Cell viability of the epidermal models was assessed by measuring the reduction of resazurin to resorufin (PrestoBlue® Assay). Cell viability values (fluorescence signals) were normalized to the epidermal model thickness. […] Samples were mounted with DPX mounting medium (Sigma-Aldrich) and analyzed by microscopy (Olympus IX 81)."}, "[3]": {"system": "ARE-dependent luciferase expression in KeratinoSens cells", "assay": "KeratinoSens skin sensitization assay", "type": "cell-based", "conditions": "positive control", "protocol": "Generation of the stable KeratinoSens™ cell line was previously described in detail (Emter et al. [2010]). KeratinoSens™ cells were maintained in DMEM containing glutamax (Gibco/Invitrogen), 9 % FCS, and 0.5 mg/mL G418. For the experiments, KeratinoSens™ cells were seeded onto 96-well plates at a density of 10,000 cells per well in 125 µL medium without G418. After 24 h, the medium was replaced with 200 µL DMEM containing 1 % FCS and the test compounds. After a 2-day incubation period at 37 °C in an atmosphere containing 5 % CO2, the cells were washed once with PBS and a resazurin reduction assay (PrestoBlue®) was carried out in order to compare the viability of the differently treated groups. Fluorescence intensity was measured at 550 nmex and 590 nmem. After another washing step with PBS, cell lysis was performed using 20 µL/well passive lysis buffer (Promega) for 20 min at room temperature. Luciferase activity was measured by applying 50 µL luciferase substrate automatically to each well and detecting the resulting luminescence. Compounds were considered as skin sensitizers when a statistically significant induction of luciferase activity above a defined threshold of ≥1.5 in the absence of impaired cell viability was observed (Emter et al. [2010]; Natsch et al. [2011])."}}}
{"smiles": "C[n+]1ccc(-c2ccccc2)cc1", "note": "[MPP^+, reference compound]", "values": [{"measurement": "velocity of mitochondrial migration in neurites", "setting": "[1]", "result": "significant decline"}]}
{"smiles": "CCCCCCCCCCCCOS(=O)(=O)[O-].[Na+]", "note": "[SDS, sodium dodecyl sulfate]", "values": [{"measurement": "influence on the architecture of the epidermis", "setting": "[2]", "result": "complete disintegration of the stratum corneum and substantial cell death in the stratum spinosum"}]}
{"smiles": "CC(=O)C=Cc1ccccc1", "note": "[benzylidene acetone, reference compound]", "values": [{"measurement": "concentration at which luciferase increase is associated with cell death", "setting": "[3]", "result": "> 10", "unit": "µM"}]}
